Test results as given in DBAASP.
Converted amounts (≈) assume the structure as drawn.

Assays:
Assay in all cases: ≥ marks a high value that may be exact or a test limit, other limits are often not marked, values filed in µg/mL are converted to µM
[1] = test system: Bacillus subtilis
[2] = test system: Escherichia coli
[3] = test system: Staphylococcus aureus
[4] = test system: Pseudomonas aeruginosa KCTC 1637
[5] = test system: Escherichia coli KCTC 1682
[6] = test system: Salmonella typhimurium KCTC 1926
[7] = test system: Staphylococcus epidermidis KCTC 1917
[8] = test system: Staphylococcus aureus KCTC 1621
[9] = test system: Bacillus cereus
[10] = test system: Bacillus subtilis KCTC 3068
[11] = test system: Acinetobacter baumannii ATCC 19606

SMILES	MIC [1]	MIC [2]	MIC [3]	MIC [4]	MIC [5]	MIC [6]	MIC [7]	MIC [8]	MIC [9]	MIC [10]	MIC [11]
CC[C@H](C)[C@H](NC(=O)[C@H](CC(C)C)NC(=O)[C@H](C)NC(=O)[C@@H]1CCCN1C(=O)[C@H](CC(C)C)NC(=O)CN)C(=O)N[C@@H](CO)C(=O)N[C@@H](Cc1c[nH]c2ccccc12)C(=O)N[C@H](C(=O)N[C@@H](CCCCN)C(=O)N[C@@H](CCCN=C(N)N)C(=O)N[C@@H](CCCCN)C(=O)N[C@@H](CCCN=C(N)N)C(N)=O)[C@@H](C)CC [GLPALISWIKRKR]	0.423 µM (≈ 0.65 µg/mL)	27.1 µM (≈ 41.7 µg/mL)	0.845 µM (≈ 1.3 µg/mL)								
CC[C@H](C)[C@H](N)C(=O)N[C@@H](CC(C)C)C(=O)NCC(=O)N[C@@H](CCCCN)C(=O)N[C@H](C(=O)N[C@@H](CC(C)C)C(=O)N[C@@H](CCC(=O)O)C(=O)NCC(=O)N[C@H](C(=O)N[C@@H](CCCCN)C(=O)N[C@@H](CO)C(=O)N[C@@H](CC(C)C)C(=O)N[C@@H](Cc1ccccc1)C(N)=O)[C@@H](C)CC)[C@@H](C)CC [ILGKILEGIKSLF]				16 µM (≈ 22.9 µg/mL)	16 µM (≈ 22.9 µg/mL)	16 µM (≈ 22.9 µg/mL)	≥ 32 µM	4 µM (≈ 5.72 µg/mL)			
CC(C)C[C@H](NC(=O)[C@@H](N)Cc1ccccc1)C(=O)NCC(=O)N[C@@H](CCCCN)C(=O)N[C@H](C(=O)N[C@@H](Cc1ccccc1)C(=O)N[C@@H](CCCCN)C(=O)NCC(=O)N[C@@H](C)C(=O)N[C@@H](CO)C(=O)N[C@@H](CCCCN)C(=O)N[C@H](C(=O)N[C@H](C(=O)N1CCC[C@H]1C(=O)N[C@@H](C)C(=O)N[C@H](C(=O)N[C@@H](Cc1ccccc1)C(=O)NCC(=O)N[C@@H](CCCCN)C(=O)N[C@H](C(=O)O)C(C)C)C(C)C)C(C)C)C(C)C)C(C)C [FLGKVFKGASKVVPAVFGKV]		> 123 µM	> 123 µM						≥ 123 µM		
CC[C@H](C)[C@H](N)C(=O)N[C@@H](Cc1c[nH]c2ccccc12)C(=O)N[C@@H](CC(N)=O)C(=O)N[C@@H](CCCCN)C(=O)N[C@H](C(=O)N[C@@H](C)C(=O)N[C@@H](CCCCN)C(=O)N[C@@H](CO)C(=O)N[C@H](C(=O)NCC(=O)N[C@@H](CCCCN)C(=O)N[C@H](C(=O)N[C@@H](CC(C)C)C(=O)N[C@@H](CCC(=O)O)C(=O)N[C@@H](CCCCN)C(=O)N[C@@H](C)C(=O)N[C@@H](CC(C)C)C(N)=O)C(C)C)[C@@H](C)CC)[C@@H](C)CC [IWNKIAKSIGKVLEKAL]	≥ 35 µM	15 µM (≈ 28.7 µg/mL)									
CC[C@H](C)[C@H](NC(=O)[C@H](CCCN=C(N)N)NC(=O)[C@H](CCCN=C(N)N)NC(=O)[C@H](CC(C)C)NC(=O)[C@@H](N)CCCN=C(N)N)C(=O)N[C@@H](Cc1c[nH]c2ccccc12)C(=O)N[C@@H](Cc1c[nH]c2ccccc12)C(=O)N[C@H](C(=O)N[C@@H](CCCN=C(N)N)C(=O)N[C@H](C(=O)N[C@@H](CCCN=C(N)N)C(=O)N[C@@H](CCCN=C(N)N)C(N)=O)C(C)C)[C@@H](C)CC [RLRRIWWIRVRR]				3.54 µM (≈ 6.25 µg/mL)	7.08 µM (≈ 12.5 µg/mL)	1.77 µM (≈ 3.13 µg/mL)	3.54 µM (≈ 6.25 µg/mL)	3.54 µM (≈ 6.25 µg/mL)		7.08 µM (≈ 12.5 µg/mL)	
CC(C)C[C@H](NC(=O)[C@H](CC(C)C)NC(=O)[C@H](CCCCN)NC(=O)[C@H](CC(C)C)NC(=O)[C@H](CC(C)C)NC(=O)[C@H](CCCCN)NC(=O)[C@H](CCCCN)NC(=O)[C@H](CC(C)C)NC(=O)[C@H](CC(C)C)NC(=O)[C@H](CCCCN)NC(=O)[C@H](CCCCN)NC(=O)[C@H](Cc1c[nH]c2ccccc12)NC(=O)[C@@H](N)CCCCN)C(N)=O [KWKKLLKKLLKLL]				8 µM (≈ 13.2 µg/mL)	8 µM (≈ 13.2 µg/mL)	8 µM (≈ 13.2 µg/mL)	4 µM (≈ 6.61 µg/mL)	8 µM (≈ 13.2 µg/mL)		4 µM (≈ 6.61 µg/mL)	
CC(C)C[C@H](NC(=O)[C@@H](N)Cc1ccccc1)C(=O)NCC(=O)N[C@@H](CCCCN)C(=O)N[C@H](C(=O)N[C@@H](Cc1ccccc1)C(=O)N[C@@H](CCCCN)C(=O)N[C@@H](CCCCN)C(=O)N[C@@H](C)C(=O)N[C@@H](CO)C(=O)N[C@@H](CCCCN)C(=O)N[C@H](C(=O)N[C@@H](Cc1ccccc1)C(=O)N1CCC[C@H]1C(=O)N[C@@H](C)C(=O)N[C@H](C(=O)N[C@@H](Cc1ccccc1)C(=O)NCC(=O)N[C@@H](CCCCN)C(=O)N[C@H](C(=O)O)C(C)C)C(C)C)C(C)C)C(C)C [FLGKVFKKASKVFPAVFGKV]		14.6 µM (≈ 32 µg/mL)	> 58.2 µM						≥ 58.2 µM		
CC[C@H](C)[C@H](N)C(=O)N[C@@H](CC(N)=O)C(=O)N[C@@H](Cc1c[nH]c2ccccc12)C(=O)N[C@@H](CCCCN)C(=O)N[C@@H](CCCCN)C(=O)N[C@H](C(=O)N[C@@H](Cc1ccccc1)C(=O)N[C@@H](CCC(=O)O)C(=O)N[C@@H](CCCCN)C(=O)N[C@H](C(=O)N[C@@H](CO)C(=O)N[C@@H](CC(N)=O)C(=O)N[C@@H](CC(C)C)C(=O)N[C@H](C(N)=O)C(C)C)C(C)C)[C@@H](C)CC [INWKKIFEKVSNLV]	22.5 µM (≈ 38.6 µg/mL)	12.5 µM (≈ 21.5 µg/mL)									
CC[C@H](C)[C@H](N)C(=O)NCC(=O)N[C@@H](CCCCN)C(=O)N[C@@H](CCC(=O)O)C(=O)N[C@@H](Cc1ccccc1)C(=O)N[C@@H](CCCCN)C(=O)N[C@@H](CCCN=C(N)N)C(=O)N[C@H](C(=O)N[C@H](C(=O)N[C@@H](CCC(N)=O)C(=O)N[C@@H](CCCN=C(N)N)C(=O)N[C@H](C(=O)N[C@@H](CCCCN)C(=O)N[C@@H](CC(=O)O)C(=O)N[C@@H](Cc1ccccc1)C(=O)N[C@@H](CC(C)C)C(=O)N[C@@H](CCCN=C(N)N)C(=O)N[C@@H](CC(N)=O)C(=O)N[C@@H](CC(C)C)C(=O)O)[C@@H](C)CC)C(C)C)[C@@H](C)CC [IGKEFKRIVQRIKDFLRNL]				16 µM (≈ 38 µg/mL)	8 µM (≈ 19 µg/mL)	8 µM (≈ 19 µg/mL)	4 µM (≈ 9.5 µg/mL)	4 µM (≈ 9.5 µg/mL)		4 µM (≈ 9.5 µg/mL)	
CC[C@H](C)[C@H](NC(=O)[C@H](CC(C)C)NC(=O)[C@H](C)NC(=O)[C@@H]1CCCN1C(=O)[C@H](CC(C)C)NC(=O)CN)C(=O)N[C@@H](CO)C(=O)N[C@@H](Cc1c[nH]c2ccccc12)C(=O)N[C@H](C(=O)N[C@@H](CCCCN)C(=O)N[C@@H](CCCN=C(N)N)C(=O)N[C@@H](CCCCN)C(=O)N[C@@H](CCCN=C(N)N)C(=O)N[C@@H](CCC(N)=O)C(=O)N[C@@H](CCC(N)=O)C(N)=O)[C@@H](C)CC [GLPALISWIKRKRQQ]	3.12 µM (≈ 5.6 µg/mL)	49.5 µM (≈ 88.9 µg/mL)	3.12 µM (≈ 5.6 µg/mL)								
CC(C)C[C@H](NC(=O)[C@H](CCCCN)NC(=O)[C@H](CCCCN)NC(=O)[C@H](Cc1c[nH]c2ccccc12)NC(=O)[C@H](CC(C)C)NC(=O)[C@H](CCCCN)NC(=O)[C@H](CCCCN)NC(=O)[C@H](Cc1c[nH]c2ccccc12)NC(=O)[C@H](CCCCN)NC(=O)[C@H](CCCCN)NC(=O)[C@H](CCCN=C(N)N)NC(=O)[C@H](Cc1c[nH]c2ccccc12)NC(=O)[C@H](CCCN=C(N)N)NC(=O)[C@H](CCCCN)NC(=O)[C@H](Cc1c[nH]c2ccccc12)NC(=O)[C@H](CCCN=C(N)N)NC(=O)CN)C(=O)N[C@@H](CO)C(N)=O [GRWKRWRKKWKKLWKKLS]				4 µM (≈ 9.99 µg/mL)	4 µM (≈ 9.99 µg/mL)	2 µM (≈ 5 µg/mL)	8 µM (≈ 20 µg/mL)	4 µM (≈ 9.99 µg/mL)		2 µM (≈ 5 µg/mL)	
CC[C@H](C)[C@H](NC(=O)[C@H](Cc1c[nH]c2ccccc12)NC(=O)[C@H](CO)NC(=O)[C@H](CO)NC(=O)[C@H](CC(C)C)NC(=O)[C@H](C)NC(=O)[C@@H]1CCCN1C(=O)[C@H](CC(C)C)NC(=O)CN)C(=O)N[C@@H](CCCCN)C(=O)N[C@@H](CCCN=C(N)N)C(=O)N[C@@H](CCCCN)C(=O)N[C@@H](CCCN=C(N)N)C(=O)N[C@@H](CCC(N)=O)C(=O)N[C@@H](CCC(N)=O)C(N)=O [GLPALSSWIKRKRQQ]	22.1 µM (≈ 39 µg/mL)	176 µM (≈ 311 µg/mL)	8.26 µM (≈ 14.6 µg/mL)								
CC[C@H](C)[C@H](NC(=O)[C@H](CC(C)C)NC(=O)[C@H](C)NC(=O)[C@H](CO)NC(=O)[C@H](CC(C)C)NC(=O)CN)C(=O)N[C@@H](CO)C(=O)N[C@@H](Cc1c[nH]c2ccccc12)C(=O)N[C@H](C(=O)N[C@@H](CCCCN)C(=O)N[C@@H](CCCN=C(N)N)C(=O)N[C@@H](CCCCN)C(=O)N[C@@H](CCCN=C(N)N)C(=O)N[C@@H](CCC(N)=O)C(=O)N[C@@H](CCC(N)=O)C(N)=O)[C@@H](C)CC [GLSALISWIKRKRQQ]	0.897 µM (≈ 1.6 µg/mL)	3.5 µM (≈ 6.25 µg/mL)	1.74 µM (≈ 3.1 µg/mL)								
CC[C@H](C)[C@H](NC(=O)[C@H](CCCCN)NC(=O)[C@H](CCCCN)NC(=O)[C@H](CC(C)C)NC(=O)[C@@H](N)CCCCN)C(=O)N[C@@H](Cc1c[nH]c2ccccc12)C(=O)N[C@@H](Cc1c[nH]c2ccccc12)C(=O)N[C@H](C(=O)N[C@@H](CCCCN)C(=O)N[C@H](C(=O)N[C@@H](CCCCN)C(=O)N[C@@H](CCCCN)C(N)=O)C(C)C)[C@@H](C)CC [KLKKIWWIKVKK]				3.91 µM (≈ 6.25 µg/mL)	7.82 µM (≈ 12.5 µg/mL)	0.976 µM (≈ 1.56 µg/mL)	3.91 µM (≈ 6.25 µg/mL)	3.91 µM (≈ 6.25 µg/mL)		7.82 µM (≈ 12.5 µg/mL)	
CC[C@H](C)[C@H](NC(=O)[C@@H]1CCCN1C(=O)[C@H](CC(C)C)NC(=O)[C@@H](N)Cc1ccccc1)C(=O)N[C@@H](C)C(=O)NCC(=O)N[C@@H](CCCCN)C(=O)N[C@@H](CC(C)C)C(=O)N[C@@H](CC(C)C)C(=O)N[C@@H](CO)C(=O)NCC(=O)N[C@@H](CC(C)C)C(=O)N[C@@H](CO)C(=O)NCC(=O)N[C@@H](CC(C)C)C(=O)N[C@@H](CC(C)C)C(=O)O [FLPIAGKLLSGLSGLL]											> 62.5 µM
